These results are taken from patent US20080026996A1, “Selective Vpac2 Receptor Reptide Agonists” (ELI LILLY AND COMPANY, priority 2004, published 2008).

Where a SMILES comes first, the peptide text is derived from it. Where no end group is shown, it is not given here. [ ]: non-standard residue; d: D form. The star is where a group is joined. hArg = N=C(N)NCCCC[C@H](N)C(=O)O; Hexanoyl = CCCCCC(=O)*; Aib = CC(C)(N)C(=O)O

One series has as its target T1, rat VPAC1 receptor (Rattus norvegicus, UniProt P30083).
T1 sequence (P30083 31-459): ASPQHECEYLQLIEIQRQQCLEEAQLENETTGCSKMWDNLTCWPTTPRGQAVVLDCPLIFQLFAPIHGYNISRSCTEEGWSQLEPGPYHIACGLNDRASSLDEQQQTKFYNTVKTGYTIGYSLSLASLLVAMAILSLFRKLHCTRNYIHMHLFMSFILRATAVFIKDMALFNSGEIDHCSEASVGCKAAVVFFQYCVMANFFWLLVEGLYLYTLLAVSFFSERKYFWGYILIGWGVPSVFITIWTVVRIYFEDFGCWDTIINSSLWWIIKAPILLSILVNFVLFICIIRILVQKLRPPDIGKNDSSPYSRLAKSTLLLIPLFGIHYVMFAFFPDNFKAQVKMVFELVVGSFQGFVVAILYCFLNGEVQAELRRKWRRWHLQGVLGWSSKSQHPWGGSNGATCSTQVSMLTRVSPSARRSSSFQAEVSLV
The series can be described thus: DiscoveRx in vitro potency, CHO-PO cells transiently transfected with rat VPAC 1 receptor DNA. The format is cell-based. Details: expressed in transfected cells; host or cells: CHO-PO, transient. The procedure:
(§1) Also, the cells are washed twice. […] The stimuli are present for 30 minutes. Then, the assay buffer is gently removed.

The nature of series [1]: Rat serum stability studies (remaining active peptide by DiscoveRx cAMP on CHO-VPAC2 cells). The format is in vitro ADME. The method, boiled down:
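Rat serum, 18 h: +aprotinin aliquot at 4° C, no-aprotinin aliquot at 37° C. Then 30 min RT step, supernatant removed, 1 h shaking at 300 rpm. DiscoveRx cAMP kit on CHO-VPAC2; EC50 from cAMP data vs standards.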

Another series has as its target T2, rat VPAC2 receptor (Rattus norvegicus, UniProt P35000).
T2 sequence (P35000 23-437): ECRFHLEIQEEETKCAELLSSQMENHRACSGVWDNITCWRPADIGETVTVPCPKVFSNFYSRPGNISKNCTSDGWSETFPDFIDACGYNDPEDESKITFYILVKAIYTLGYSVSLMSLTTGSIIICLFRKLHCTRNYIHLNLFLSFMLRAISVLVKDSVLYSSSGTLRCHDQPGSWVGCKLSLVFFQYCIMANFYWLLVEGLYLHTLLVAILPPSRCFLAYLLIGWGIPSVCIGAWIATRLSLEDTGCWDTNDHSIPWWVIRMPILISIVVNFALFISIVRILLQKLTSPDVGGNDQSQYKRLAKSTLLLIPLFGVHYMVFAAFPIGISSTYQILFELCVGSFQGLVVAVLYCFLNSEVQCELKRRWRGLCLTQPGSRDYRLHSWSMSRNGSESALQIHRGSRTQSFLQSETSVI
The series can be described thus: DiscoveRx in vitro potency, CHO-PO cells transiently transfected with rat VPAC 2 receptor DNA. The series is classed as cell-based. The arrangement: expressed in transfected cells; host or cells: CHO-PO, transient. Here is the method:
as §1

The target in series [2] is T3, human VPAC2 (Homo sapiens, UniProt P41587).
T3 construct: expressed in transfected cells
T3 sequence (P41587 24-438): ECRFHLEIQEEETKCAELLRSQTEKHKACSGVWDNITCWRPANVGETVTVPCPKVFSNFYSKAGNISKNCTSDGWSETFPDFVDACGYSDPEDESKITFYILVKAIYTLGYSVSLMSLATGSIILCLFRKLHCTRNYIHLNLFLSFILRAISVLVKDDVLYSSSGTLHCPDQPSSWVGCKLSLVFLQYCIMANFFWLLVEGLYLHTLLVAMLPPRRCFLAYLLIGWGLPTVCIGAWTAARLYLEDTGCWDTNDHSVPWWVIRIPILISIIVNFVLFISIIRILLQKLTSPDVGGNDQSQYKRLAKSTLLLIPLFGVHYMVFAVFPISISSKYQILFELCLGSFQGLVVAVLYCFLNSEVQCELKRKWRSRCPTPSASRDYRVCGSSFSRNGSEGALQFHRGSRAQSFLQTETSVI
The series can be described thus: Filter binding assay, membranes of stable VPAC2 cell line, 125I-labeled VIP tracer (Table 2). As to conditions: read-out: Human VPAC2 Receptor Binding. The method, boiled down:
(§2)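 Competition binding of agonists against radiotracer on receptor membranes (2.5 μg) in 25 mM HEPES pH 7.4 with 0.5% protease-free BSA, about 40000 cpm tracer, 1 hour with shaking. Bound tracer was separated by filtration on PEI-presoaked, BSA-blocked glass-fibre filters, washed and counted by scintillation.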

In a further series the target is T4, human VPAC1 (Homo sapiens, UniProt P32241).
T4 sequence (P32241 31-457): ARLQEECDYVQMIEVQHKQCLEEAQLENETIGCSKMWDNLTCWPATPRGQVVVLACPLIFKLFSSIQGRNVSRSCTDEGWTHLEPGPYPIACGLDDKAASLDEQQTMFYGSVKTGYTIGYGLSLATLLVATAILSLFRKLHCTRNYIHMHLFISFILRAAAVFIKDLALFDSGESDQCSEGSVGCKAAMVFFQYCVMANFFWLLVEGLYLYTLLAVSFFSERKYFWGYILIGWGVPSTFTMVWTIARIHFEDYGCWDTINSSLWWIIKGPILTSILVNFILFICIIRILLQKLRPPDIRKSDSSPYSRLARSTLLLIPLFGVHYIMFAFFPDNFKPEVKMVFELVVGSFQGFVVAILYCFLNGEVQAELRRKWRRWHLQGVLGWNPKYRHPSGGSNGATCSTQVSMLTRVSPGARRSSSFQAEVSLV
Put plainly: Filter binding assay, membranes of cells transiently transfected with human VPAC1, 125I-labeled VIP tracer (Table 2). The arrangement: expressed in transfected cells. As to conditions: read-out: Human VPAC1 Receptor Binding. Summed up:
as §2

Series [3] has as its target T3, human VPAC2. Put plainly: Alpha screen cAMP in vitro potency, human VPAC2 receptor. The format is cell-based. Particulars: cAMP generation; single result from two analyses performed in a single run; read-out: Human VPAC2 Receptor: Alpha Screen EC50. The method, boiled down: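 Stimulated cAMP accumulation is read by AlphaScreen after 60 min exposure of 50,000 non-enzymatically harvested cells to compound, followed by lysis with donor beads.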

The next series relates to Normal Wistar rats. The series can be described thus: Intravenous glucose tolerance test (IVGTT). The series is classed as in vivo, rat. As to conditions: IVGTT, insulin. Here is the method:
Intravenous glucose tolerance test (IVGTT): Normal Wistar rats are fasted overnight and are anesthetized prior to the experiment. A blood sampling catheter is inserted into the rats. The compound is given in the jugular vein. Blood samples are taken from the carotid artery. A blood sample is drawn immediately prior to the injection of glucose along with the compound. After the initial blood sample, glucose mixed with compound is injected intravenously (i.v.). A glucose challenge of 0.5 g/kg body weight is given, injecting a total of 1.5 mL vehicle with glucose and agonist per kg body weight. The peptide concentration vary to produce the desired dose in μg/kg. Blood samples are drawn at 2, 4, 6 and 10 minutes after giving glucose. The control group of animals receives the same vehicle along with glucose, but with no compound added. In some instances, a 30 minute post-glucose blood sample is drawn. Aprotinin is added to the blood sample (250 kIU/ml blood). The serum is then analyzed for glucose and insulin using standard methodologies.
The assay uses a formulated and calibrated peptide stock in PBS. Normally, this stock is a prediluted 100 μM stock. However, a more concentrated stock with approximately 1 mg agonist per mL is used. The specific concentration is always known. Variability in the maximal response is mostly due to variability in the vehicle dose.

The next series in a line: in vivo. Particulars: Wistar, rat, iv, 10 ug/kg.
For series [4] the following is noted: rat, in vivo, iv, 10 ug/kg.
Series [5] addresses T3, human VPAC2. Put plainly: DiscoveRx cAMP in vitro potency, CHO-S cell line stably expressing human VPAC2 receptor. The series is classed as cell-based. As to conditions: cAMP generation; mean of two independent runs. Here is the method:
Also, the cells are washed twice. The cells are incubated in assay buffer plus IBMX for 15 minutes at room temperature. […] The stimuli are present for 30 minutes. Then, the assay buffer is gently removed. […] At day 3, the assay described above for the VPAC2 receptor cell line is performed.

The next series deals with T5, human PAC1 (Homo sapiens, UniProt P41586).
T5 sequence (P41586 21-468): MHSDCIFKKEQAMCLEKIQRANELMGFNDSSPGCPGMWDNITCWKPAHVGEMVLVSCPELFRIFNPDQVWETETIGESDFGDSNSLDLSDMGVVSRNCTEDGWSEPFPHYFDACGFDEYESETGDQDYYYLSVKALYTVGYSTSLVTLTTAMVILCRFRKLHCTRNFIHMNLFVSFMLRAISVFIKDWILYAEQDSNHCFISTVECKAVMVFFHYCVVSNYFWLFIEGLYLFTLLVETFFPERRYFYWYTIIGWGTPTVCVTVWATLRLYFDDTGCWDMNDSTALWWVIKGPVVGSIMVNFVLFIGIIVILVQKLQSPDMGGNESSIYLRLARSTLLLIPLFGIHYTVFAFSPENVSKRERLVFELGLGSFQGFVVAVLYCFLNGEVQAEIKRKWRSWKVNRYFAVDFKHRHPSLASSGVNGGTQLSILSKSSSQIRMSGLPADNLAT
The series can be described thus: Filter binding assay, membranes of cells transiently transfected with human PAC1, 125I-labeled PACAP-27 tracer (Table 2). As to conditions: read-out: Human PAC1 Receptor Binding. The arrangement: expressed in transfected cells. Summed up: as §2

For `CCCCCC(=O)N[C@@H](Cc1c[nH]cn1)C(=O)N[C@@H](CO)C(=O)N[C@@H](CC(=O)O)C(=O)N[C@@H](C)C(=O)N[C@H](C(=O)N[C@@H](Cc1ccccc1)C(=O)N[C@H](C(=O)N[C@@H](CC(=O)O)C(=O)N[C@@H](CC(N)=O)C(=O)N[C@@H](Cc1ccc(O)cc1)C(=O)N[C@H](C(=O)N[C@@H](CCCCNC(=N)N)C(=O)N[C@@H](CC(C)C)C(=O)N[C@@H](CCCNC(=N)N)C(=O)NC(C)(C)C(=O)N[C@@H](CCC(N)=O)C(=O)N[C@H](C(=O)N[C@@H](C)C(=O)N[C@@H](C)C(=O)NC(C)(C)C(=O)N[C@@H](CCCCN)C(=O)N[C@@H](Cc1ccc(O)cc1)C(=O)N[C@@H](CC(C)C)C(=O)N[C@@H](CCC(N)=O)C(=O)N[C@@H](CO)C(=O)N[C@H](C(=O)N[C@@H](CCCCNC(=N)N)C(=O)N[C@@H](CCCCNC(=N)N)C(=O)NCC(=O)NCC(=O)N1CCC[C@H]1C(=O)N[C@@H](CO)C(=O)N[C@@H](CO)C(=O)NCC(=O)N[C@@H](C)C(=O)N1CCC[C@H]1C(=O)N1CCC[C@H]1C(=O)N1CCC[C@H]1C(=O)N[C@@H](CS)C(N)=O)[C@@H](C)CC)C(C)C)[C@@H](C)O)[C@@H](C)O)C(C)C` [Agonist P333] (Hexanoyl-HSDAVFTDNYT[hArg]LR[Aib]QVAA[Aib]KYLQSI[hArg][hArg]GGPSSGAPPPC-NH2), the values for the half-maximal effective concentration (EC50) at rat VPAC1 receptor, on rat VPAC2 receptor and at human VPAC2 [3] were 1.37 nM, 0.13 nM and 0.75 nM, respectively. In [1], the “Rat Serum Stability (Estimated purity in % after 72 hours)” value is on record as 61.2%. In addition, the “Rat Serum Stability (estimated purity in % after 18 hours)” value in series [1] was 40.90%. In addition, the IC50 at human VPAC2 [2] was 9.71 nM; on human VPAC1, greater than 3000 nM.
Turning to “HSDAVFTDNYTRLLAKVAAKKYLQSIKNKRYGGPSSGAPPPS [Agonist P89]”, the 50% effective concentration (EC50) (commonly the concentration giving half of the maximal effect) on rat VPAC1 receptor amounted to 0.02 nM; on human VPAC2 [5] it was 0.7 nM; on human VPAC2 [3] it was 1.23 nM. Besides, the “% increase AUC: Dose = 0.5 μg/kg” value in the series with Normal Wistar rats (0.5 μg/kg) is recorded as 110%. Moreover, in the series with Normal Wistar rats (10 μg/kg), the “% increase AUC: Dose = 10 μg/kg” value is 280%. Also, in series [1], the “Rat Serum Stability (Estimated purity in % after 72 hours)” value was less than 0.4%. In addition, the AUC(0-t) (usually the area under the concentration-time curve up to a stated or last time point) in “in vivo” is 0.523 nM·h. The highest level in “in vivo” (Cmax) was 5.45 nM. The half-life (commonly the time in which the quantity being followed falls by half) in “in vivo” is 1.32 min. In series [4], the “Exposure (10 μg/kg, Vdist in μg/(nM * kg))” value is 0.64 µg/nM/kg. Further, the IC50 at human VPAC2 [2] stood at 0.15 nM; on human VPAC1, 162 nM.
On to “Hexanoyl-HSDAVFTDNYTRLR[Aib]QIAA[Aib]KYLQSIKNKRYGGPSSGAPPPS [Agonist P322]”, for which the concentration giving a half-maximal response (EC50) at rat VPAC1 receptor worked out at 0.5 nM; on rat VPAC2 receptor, 0.04 nM; on human VPAC2 [3], 0.22 nM. In addition, in [1], the “Rat Serum Stability (Estimated purity in % after 72 hours)” value is listed as 1.3%. In [1], the “Rat Serum Stability (estimated purity in % after 18 hours)” value is on record as 42.18%. Also, the values for the IC50 at human VPAC2 [2], on human VPAC1 and on human PAC1 were 0.4 nM, greater than 3000 nM and greater than 25000 nM, respectively.
Consider “Hexanoyl-HSDAVFTDNYTRLR[Aib]QLAAK[Aib]YLQSIKNKRYGGPSSGAPPPS [Agonist P284]”, for which the concentration giving a half-maximal response (EC50) on rat VPAC1 receptor came out at 0.44 nM; on rat VPAC2 receptor, 0.07 nM; on human VPAC2 [3], 0.18 nM. In [1], the “Rat Serum Stability (estimated purity in % after 18 hours)” value is 27.89%. The IC50 is 0.38 nM on human VPAC2 [2], greater than 3000 nM at human VPAC1 and greater than 25000 nM on human PAC1.
